# Results taken from PMC8537901, “Progesterone Metabolism by Human and Rat Hepatic and Intestinal Tissue” (Pharmaceutics, 2021).
# Legend:
# [1] = Human cytosol stability assay, liver cytosol; settings: for effect of inhibitor on rate of progesterone depletion: presence of NADPH, inhibitor 100 µM; for half-life at 1 µM: human, t1/2 (min)
# Procedure: (§3) Progesterone stability was assessed in intestinal and liver cytosol in the presence or absence of NADPH cofactor and specific enzyme inhibitors. For both intestinal and liver cytosol, the protein concentration was adjusted to 0.5 mg/mL. Both human liver and intestinal cytosol (with 0.1 mM EDTA) were then pre-incubated for 10 min in a thermomixer comfort by Eppendorf in an RNAse/DNAse 96-well plate until reaching a temperature of 37 °C. Next, a final concentration of 100 µM of enzyme inhibitors were added to the cytosol. […] The enzyme inhibitors used during this study were: Epalrestat (AKR1B1 inhibitor), Diazepam (AKR1C inhibitor), Finasteride (AKR1D1 inhibitor), Diazepam + Flufenamic Acid (AKR1C inhibitor cocktail), Menadione (aldehyde oxidase inhibitor) and Allopurinol (xanthine oxidase inhibitor).
# (§4) Next, the mixtures were incubated for an additional 5 min, and NADPH was added at a final concentration of 1 mM. Finally, progesterone (1 µM) was added and mixed by pipetting to initiate the reaction. Immediately following reaction initiation, a 50 µL sample was taken. The sample was then diluted in 100 µL of acetonitrile to terminate enzymatic reaction. Samples were centrifuged at 4 °C and 2500 rpm for 30 min. Following centrifugation, the supernatant was removed and diluted 1:1 with milli-Q water. […] This process was followed for sampling at all required time intervals.
# (§5) Liquid chromatography with tandem mass spectrometry (LC MS/MS) was used to analyse samples obtained from both cytosol and homogenate stability assays (see Appendix A Figure A1 for example spectra). […] The column used was Aquity HSS T3 (1.8 µm) 2.1 × 50 mm (Water Ltd., Herts, UK), and the samples were run with an injection volume of 8 µL at 70 °C. A solvent system and gradient with a flow rate of 600 µL/minute was used to perform this analysis. The mobile phase consisted of 10 mM ammonium formate with 0.1% v/v formic acid in water (A) and acetonitrile (B).
# (§6) The percent of substrate present at each timepoint relative to the 0 min sample was calculated from the LC-MS/MS peak area ratios (compound peak area/internal standard peak area). […] The Kolmogorov–Smirnov test was used to assess normality followed by Student’s t-test. Results were considered statistically significant when p < 0.05.
# [2] = Tissue homogenate stability assay, rat liver homogenate; assay type: in vitro ADME; settings: for half-life: Sprague Dawley, rat
# Procedure: (§1) Progesterone stability was determined in rat and human intestinal mucosa and liver homogenates. In addition, progesterone was incubated in stock solution containing phosphate-buffered saline, 0.1% Tween80 and 1% DMSO. […] Stability assays were carried out either in the presence or absence of 1mM of the cofactor NADPH. The physiological concentration of NADPH was approximately 100 µM [26]. However, for the purpose of this research, a concentration of 1 mM was used to ensure an excess of co-factor was available and not rate-limited throughout the incubation period.
# (§2) The protein concentration for the rat and human liver and intestinal homogenates was adjusted to 5 mg/mL. […] A final concentration of 1 µM progesterone and 1 mM NADPH (where required) was added to the homogenate, and samples were immediately taken (t–0). Next, the homogenate solution was incubated with shaking (700 rpm) at 37 °C, and further samples were taken at timed intervals. To stop the enzymatic reaction, samples were immediately diluted in ice-cold acetonitrile at a ratio of 1:3 sample:acetonitrile. The samples were then centrifuged at 3000 rpm for 30 min to pellet the homogenates.
# [3] = Tissue homogenate stability assay, human intestinal homogenate; assay type: in vitro ADME; settings: for half-life: human
# Procedure: as §1, §2
# [4] = Tissue homogenate stability assay, human liver homogenate; assay type: in vitro ADME; settings: for half-life: human, liver homogenate
# Procedure: as §1, §2
# [5] = Human cytosol stability assay, intestinal cytosol; settings: for half-life at 1 µM: human, human intestinal cytosol, t1/2 (min)
# Procedure: as §3, §4, §5, §6
# [6] = Tissue homogenate stability assay, rat intestinal homogenate; assay type: in vitro ADME; settings: for half-life: Sprague Dawley, rat
# Procedure: as §1, §2
# [7] = Stability in control media (phosphate-buffered saline, 0.1% Tween80, 1% DMSO, pH 7.4); assay type: physicochemical
# Procedure: as §1
# [8] = rat liver homogenate + 1 mM NADPH
# [9] = human liver cytosol + NADPH + AKR1B1 inhibitor (Epalrestat 100 µM)
# [10] = human liver cytosol + NADPH + AKR1C1 cocktail (Diazepam + Flufenamic Acid)
# [11] = human liver cytosol + NADPH, no inhibitor
# [12] = human intestinal homogenate + 1 mM NADPH
# [13] = human intestinal homogenate, no NADPH
# [14] = human liver homogenate, no NADPH
# [15] = human intestinal cytosol + NADPH + AKR1B inhibitor (Epalrestat 100 µM)
# [16] = human intestinal cytosol + NADPH, no inhibitor
# [17] = rat intestinal homogenate + 1 mM NADPH
structure (smiles),measurement,setting,value
CC1=CC(=O)c2ccccc2C1=O [Menadione],effect of inhibitor on rate of progesterone depletion,[1]; human liver cytosol,not deemed significant
CC(=O)[C@H]1CC[C@H]2[C@@H]3CCC4=CC(=O)CC[C@]4(C)[C@H]3CC[C@]12C [Progesterone],half-life,"[2]; liver homogenate, pH 7.4, rat liver homogenate, no NADPH",0.663 ± 0.169 h
same,half-life,"[2]; rat liver homogenate, pH 7.4, rat liver homogenate + 1 mM NADPH",0.045 h
same,t1/2,[2]; [8],2.72 ± 0.05 min
same,% Drug Remaining After 60 min,[2]; [8],0.03 ± 0.0005%
same,% of original concentration remaining,"[2]; rat liver homogenate + NADPH, within 10 min of incubation",less than 2%
same,% of the drug remaining,"[2]; rat liver homogenate, absence of NADPH, after two hours of incubation",over 40%
same,% Drug Remaining After 60 min,"[2]; rat liver homogenate, no NADPH",46.04 ± 0.69%
same,t1/2,[1]; [9],0.3135 ± 0.016 h
same,% Drug Remaining After 60 min,[1]; [9],6.6 ± 6.24%
same,t1/2,[1]; [10],0.5927 ± 0.111 h
same,% Drug Remaining After 60 min,[1]; [10],33.5 ± 1.72%
same,% Drug Remaining After 60 min,[1]; human liver cytosol + NADPH + AKR1C1 inhibitor (Diazepam 100 µM),0.11 ± 0.04%
same,% Drug Remaining After 60 min,[1]; human liver cytosol + NADPH + AKR1D1 inhibitor (Finasteride 100 µM),7.85 ± 6.31%
same,% Drug Remaining After 60 min,[1]; human liver cytosol + NADPH + AOX inhibitor (Menadione 100 µM),0.97 ± 0.88%
same,t1/2,[1]; [11],0.2288 ± 0.0135 h
same,% Drug Remaining After 60 min,[1]; [11],0.04 ± 0.01%
same,% Drug Remaining After 60 min,"[1]; human liver cytosol, absence of NADPH, + AOX inhibitor (Menadione 100 µM)",69.14 ± 2.91%
same,% Drug Remaining After 60 min,"[1]; human liver cytosol, absence of NADPH, + XAO inhibitor (Allopurinol 100 µM)",57.09 ± 2.01%
same,half-life at 1 µM,"[1]; human liver cytosol, human liver cytosol + NADPH + AKR1C1 cocktail (Diazepam + Flufenamic Acid)",0.593 h
same,half-life at 1 µM,"[1]; human liver cytosol, human liver cytosol + NADPH, no inhibitor",0.217 h
same,half-life at 1 µM,"[1]; human liver cytosol, liver cytosol section (Figure 4), absence of NADPH, no inhibitor, line printed as Human intestinal Cytosol",1.72 ± 0.156 h
same,half-life at 1 µM,"[1]; human liver cytosol, with Allopurinol (xanthine oxidase inhibitor), 100 µM, human liver cytosol, absence of NADPH, + XAO inhibitor (Allopurinol 100 µM)",1.66 ± 0.152 h
same,half-life at 1 µM,"[1]; human liver cytosol, with Diazepam (AKR1C1 inhibitor), 100 µM, human liver cytosol + NADPH + AKR1C1 inhibitor (Diazepam 100 µM)",0.235 ± 0.004 h
same,half-life at 1 µM,"[1]; human liver cytosol, with Epalrestat (AKR1B1 inhibitor), 100 µM, human liver cytosol + NADPH + AKR1B1 inhibitor (Epalrestat 100 µM)",0.3 h
same,half-life at 1 µM,"[1]; human liver cytosol, with Finasteride (AKR1D1 inhibitor), 100 µM, human liver cytosol + NADPH + AKR1D1 inhibitor (Finasteride 100 µM)",0.308 ± 0.0283 h
same,half-life at 1 µM,"[1]; human liver cytosol, with Menadione (aldehyde oxidase inhibitor), 100 µM, human liver cytosol, absence of NADPH, + AOX inhibitor (Menadione 100 µM)",2.21 ± 0.0782 h
same,half-life at 1 µM,"[1]; liver cytosol, with Menadione 100 µM (aldehyde oxidase inhibitor), human liver cytosol + NADPH + AOX inhibitor (Menadione 100 µM)",0.258 ± 0.0338 h
same,% Drug Remaining After 60 min,"[1]; liver cytosol section (Figure 4), absence of NADPH, no inhibitor, line printed as Human intestinal Cytosol",56.6 ± 2.07%
same,t1/2,[3]; [12],2.6203 ± 0.4568 h
same,% Drug Remaining After 60 min,[3]; [12],73.92 ± 5.11%
same,% Drug Remaining After 60 min,"[3]; human intestinal homogenate + 1 mM NADPH, listed as progesterone",74%
same,% Drug Remaining After 60 min,[3]; [13],75.82 ± 9.35%
same,% Drug Remaining After 60 min,"[3]; human intestinal homogenate, no NADPH, listed as progesterone",76%
same,half-life,"[3]; human intestinal homogenate, human intestinal homogenate + 1 mM NADPH",2.62 h
same,half-life,[3]; [13],2.6 ± 0.229 h
same,% Drug Remaining After 60 min,[4]; human liver homogenate + 1 mM NADPH,0.27 ± 0.26%
same,% of original concentration remaining,"[4]; human liver homogenate + NADPH, within 10 min of incubation",less than 2%
same,% of the drug remaining,"[4]; human liver homogenate, absence of NADPH, after two hours of incubation",over 40%
same,% Drug Remaining After 60 min,[4]; [14],43.32 ± 4.84%
same,half-life,"[4]; human liver homogenate + 1 mM NADPH, 1 µM progesterone, 5 mg/mL protein, 37 °C",0.045 ± 0.000833 h
same,half-life,[4]; [14],0.649 ± 0.195 h
same,t1/2,[5]; [15],3.0687 ± 0.3158 h
same,% Drug Remaining After 60 min,[5]; [15],80.87 ± 7.84%
same,% Drug Remaining After 60 min,[5]; human intestinal cytosol + NADPH + AKR1C1 inhibitor (Diazepam 100 µM),77.38 ± 6.37%
same,% Drug Remaining After 60 min,[5]; human intestinal cytosol + NADPH + AKR1C cocktail (Diazepam + Flufenamic Acid),73.56 ± 3.69%
same,% Drug Remaining After 60 min,[5]; human intestinal cytosol + NADPH + AKR1D1 inhibitor (Finasteride 100 µM),79.56 ± 4.44%
same,t1/2,[5]; [16],2.1587 ± 0.0458 h
same,% Drug Remaining After 60 min,[5]; [16],72.51 ± 6.48%
same,half-life at 1 µM,[5]; [16],2.16 h
same,half-life at 1 µM,"[5]; with Epalrestat (AKR1B inhibitor), 100 µM, human intestinal cytosol + NADPH + AKR1B inhibitor (Epalrestat 100 µM)",3.07 h
same,half-life at 1 µM,"[5]; with Finasteride (AKR1D1 inhibitor), 100 µM, human intestinal cytosol + NADPH + AKR1D1 inhibitor (Finasteride 100 µM)",3.03 ± 0.0732 h
same,half-life,"[6]; rat intestinal homogenate, pH 7.4, rat intestinal homogenate + 1 mM NADPH",3.29 h
same,half-life,"[6]; rat intestinal homogenate, pH 7.4, rat intestinal homogenate, no NADPH",5.87 ± 0.614 h
same,t1/2,[6]; [17],3.2938 ± 0.0485 h
same,% Drug Remaining After 60 min,[6]; [17],76.67 ± 4.72%
same,% Drug Remaining After 60 min,"[6]; rat intestinal homogenate + 1 mM NADPH, listed as progesterone",77%
same,% Drug Remaining After 60 min,"[6]; rat intestinal homogenate, no NADPH",90.93 ± 2.19%
same,% Drug Remaining After 60 min,"[6]; rat intestinal homogenate, no NADPH, listed as progesterone",over 90%
same,% detectable in control media,[7]; after 2 h in control media,99%
same,time stable in stock solution,"[7]; phosphate-buffered saline, 0.1% Tween80, 1% DMSO, pH 7.4, 1 µM",up to 6 h
"CN1C(=O)CN=C(c2ccccc2)c2cc(Cl)ccc21 [diazepam, Diazepam]",effect of inhibitor on rate of progesterone depletion,[1]; human liver cytosol,no significant difference
